Where two headings read alike, the source gives them in different places.
Legend:
Format in all cases: cell-based
S. aureus = tested on: S. aureus
P. aeruginosa = tested on: P. aeruginosa
E. faecium = tested on: E. faecium
A. calcoaceticus = tested on: A. calcoaceticus
E. cloacae = tested on: E. cloacae
S. marcescens = tested on: S. marcescens
S. epidermidis = S. epidermidis strain SE010
K. pneumoniae = tested on: K. pneumoniae
E. faecalis = tested on: E. faecalis
S. maltophilia = tested on: S. maltophilia
E. coli = tested on: E. coli
bacterial isolates = assay: microbe, parasite or virus in culture; settings: combination with Ciprofloxacin

Question: With ILKKFPFWPWRRK [MBI 11A7CN] as the sequence, how does the MIC (S. aureus; S. aureus strain SA009) read?
Answer: 2 µg/mL

Question: And the MIC (S. aureus; S. aureus strain SA014)?
Answer: 4 µg/mL

Question: What about the MIC (S. aureus; S. aureus strain SA093) of the same sequence?
Answer: 1 µg/mL

Question: And the MIC (P. aeruginosa; P. aeruginosa strain PA004)?
Answer: >128 µg/mL

Question: And the MIC (E. faecium; E. faecium strain EFM003)?
Answer: 2 µg/mL

Question: What about the MIC (A. calcoaceticus; A. calcoaceticus strain AC002) of the same sequence?
Answer: 4 µg/mL

Question: And the MIC (E. cloacae; E. cloacae strain ECL007)?
Answer: >128 µg/mL

Question: What about the MIC (S. marcescens; S. marcescens strain SMS003) of the same sequence?
Answer: >128 µg/mL

Question: What about the MIC (S. epidermidis) of the same sequence?
Answer: 4 µg/mL

Question: What about the MIC (K. pneumoniae; K. pneumoniae strain KP001) of the same sequence?
Answer: 8 µg/mL

Question: What about the MIC (E. faecalis; E. faecalis strain EFS001) of the same sequence?
Answer: 2 µg/mL

Question: What about the MIC (E. faecalis; E. faecalis strain EFS002) of the same sequence?
Answer: 16 µg/mL

Question: What about the MIC (E. faecalis; E. faecalis strain EFS008) of the same sequence?
Answer: 4 µg/mL

Question: What about the MIC (S. maltophilia; S. maltophilia strain SMA002) of the same sequence?
Answer: 64 µg/mL

Question: And the MIC (E. coli; E. coli strain ECO005)?
Answer: 8 µg/mL

Question: Which MIC (S. aureus; S. aureus strain SA004) does the source give for ILKKIPIIPIRRK [MBI 11A2CN] here?
Answer: 8 µg/mL

Question: And the MIC (P. aeruginosa; P. aeruginosa strain PA004)?
Answer: >128 µg/mL

Question: And the MIC (E. faecium; E. faecium strain EFM003)?
Answer: 16 µg/mL

Question: And the MIC (A. calcoaceticus; A. calcoaceticus strain AC001)?
Answer: >128 µg/mL

Question: What about the MIC (E. cloacae; E. cloacae strain ECL007) of the same sequence?
Answer: >128 µg/mL

Question: And the MIC (S. marcescens; S. marcescens strain SBS003)?
Answer: >128 µg/mL

Question: And the MIC (K. pneumoniae; K. pneumoniae strain KP002)?
Answer: >128 µg/mL

Question: What about the MIC (E. faecalis; E. faecalis strain EFS002) of the same sequence?
Answer: >128 µg/mL

Question: And the MIC (S. maltophilia; S. maltophilia strain SMA001)?
Answer: >128 µg/mL

Question: What about the FIC (bacterial isolates; S. aureus SA014) of the same sequence?
Answer: 1.00

Question: And the FIC (bacterial isolates; S. aureus SA093)?
Answer: 0.75

Question: And the MIC (E. coli; E. coli strain ECO003)?
Answer: >128 µg/mL

Question: How did the MIC (S. aureus; S. aureus SA008) turn out when ILKKNPNNPNRRK [MBI 11M8] was run?
Answer: 32 µg/mL

Question: And the MIC (E. faecium; E. faecium EFM002)?
Answer: 32 µg/mL

Question: And the MIC (E. faecalis; E. faecalis EFS002)?
Answer: 32 µg/mL

Question: Which results are given for ILKKPWWPWRRK [MBI 11G3CN]?
Answer: MIC (S. aureus; S. aureus strain SA009): 8 µg/mL; MIC (P. aeruginosa; P. aeruginosa strain PA003): >128 µg/mL; MIC (E. faecium; E. faecium strain EFM002): 32 µg/mL; MIC (E. cloacae; E. cloacae strain ECL007): >128 µg/mL; MIC (S. marcescens; S. marcescens strain SMS004): >128 µg/mL; MIC (K. pneumoniae; K. pneumoniae strain KP001): >128 µg/mL; MIC (E. faecalis; E. faecalis strain EFS002): 64 µg/mL; MIC (S. maltophilia; S. maltophilia strain SMA001): >128 µg/mL; MIC (E. coli; E. coli strain ECO003): 64 µg/mL

Question: With ILKKWPWWPWRPMILKKAGS [MBI 11D5CN] as the sequence, how does the MIC (S. aureus; S. aureus strain SA005) read?
Answer: 8 µg/mL

Question: What about the MIC (P. aeruginosa; P. aeruginosa strain PA003) of the same sequence?
Answer: >64 µg/mL

Question: What about the MIC (E. faecium; E. faecium strain EFM003) of the same sequence?
Answer: 1 µg/mL

Question: And the MIC (A. calcoaceticus; A. calcoaceticus strain AC001)?
Answer: >64 µg/mL

Question: And the MIC (E. cloacae; E. cloacae strain ECL007)?
Answer: >64 µg/mL

Question: What about the MIC (S. marcescens; S. marcescens strain SMS004) of the same sequence?
Answer: >64 µg/mL

Question: What about the MIC (K. pneumoniae; K. pneumoniae strain KP001) of the same sequence?
Answer: >64 µg/mL

Question: What about the MIC (E. faecalis; E. faecalis strain EFS002) of the same sequence?
Answer: 16 µg/mL

Question: And the MIC (S. maltophilia; S. maltophilia strain SMA001)?
Answer: 64 µg/mL

Question: And the MIC (E. coli; E. coli strain ECO003)?
Answer: 64 µg/mL

Question: For ILKKWPWWPWRRK [MBI 11E1CN], which MIC (S. aureus; S. aureus strain SA006) is on record?
Answer: 1 µg/mL

Question: And the MIC (P. aeruginosa; P. aeruginosa strain PA003)?
Answer: 128 µg/mL

Question: What about the MIC (E. faecium; E. faecium strain EFM001) of the same sequence?
Answer: 8 µg/mL

Question: What about the MIC (A. calcoaceticus; A. calcoaceticus strain AC001) of the same sequence?
Answer: 32 µg/mL

Question: And the MIC (E. cloacae; E. cloacae strain ECL007)?
Answer: >128 µg/mL

Question: What about the MIC (S. marcescens; S. marcescens strain SMS003) of the same sequence?
Answer: >128 µg/mL

Question: And the MIC (K. pneumoniae; K. pneumoniae strain KP002)?
Answer: 39 µg/mL

Question: What about the MIC (E. faecalis; E. faecalis strain EFS002) of the same sequence?
Answer: 8 µg/mL

Question: And the MIC (S. maltophilia; S. maltophilia strain SMA001)?
Answer: 64 µg/mL

Question: And the MIC (E. coli; E. coli strain ECO003)?
Answer: 8 µg/mL

Question: How did the MIC (S. aureus; S. aureus SA004) turn out when ILKKWPWWPWRRK [MBI 11] was run?
Answer: 4 µg/mL

Question: And the MIC (P. aeruginosa; P. aeruginosa PA004)?
Answer: >128 µg/mL

Question: What about the MIC (E. faecium; E. faecium EFM003) of the same sequence?
Answer: 4 µg/mL

Question: And the MIC (A. calcoaceticus; A. calcoaceticus AC002)?
Answer: 8 µg/mL

Question: And the MIC (E. cloacae; E. cloacae ECL007)?
Answer: >128 µg/mL

Question: And the MIC (S. marcescens; S. marcescens SMS004)?
Answer: >128 µg/mL

Question: And the MIC (K. pneumoniae; K. pneumoniae KP001)?
Answer: 128 µg/mL

Question: What about the MIC (E. faecalis; E. faecalis EFS002) of the same sequence?
Answer: 64 µg/mL

Question: And the MIC (S. maltophilia; S. maltophilia SMA002)?
Answer: 128 µg/mL

Question: And the MIC (E. coli; E. coli ECO002)?
Answer: 64 µg/mL

Question: For ILKKWPWWPWRRKMILKKAGS [MBI 11D4CN], which MIC (S. aureus; S. aureus strain SA009) is on record?
Answer: 4 µg/mL

Question: And the MIC (P. aeruginosa; P. aeruginosa strain PA004)?
Answer: >64 µg/mL

Question: What about the MIC (E. faecium; E. faecium strain EFM002) of the same sequence?
Answer: 1 µg/mL

Question: And the MIC (A. calcoaceticus; A. calcoaceticus strain AC001)?
Answer: >64 µg/mL

Question: What about the MIC (E. cloacae; E. cloacae strain ECL007) of the same sequence?
Answer: >64 µg/mL

Question: And the MIC (S. marcescens; S. marcescens strain SMS004)?
Answer: >64 µg/mL

Question: And the MIC (K. pneumoniae; K. pneumoniae strain KP002)?
Answer: >64 µg/mL

Question: And the MIC (E. faecalis; E. faecalis strain EFS002)?
Answer: 16 µg/mL

Question: And the MIC (S. maltophilia; S. maltophilia strain SMA001)?
Answer: >64 µg/mL

Question: And the MIC (E. coli; E. coli strain ECO003)?
Answer: 64 µg/mL

Source: patent US20020035061A1, “COMPOSITIONS AND METHODS FOR TREATING INFECTIONS USING CATIONIC PEPTIDES ALONE OR IN COMBINATION WITH ANTIBIOTICS” (priority 1996, published 2002)
